The target of data set [1] is Mu-type opioid receptor (Rattus norvegicus, UniProt P33535). As to the kind of experiment: Displacement of [3H]DAMGO from MOR in Wistar rat whole brain membranes after 45 mins by liquid scintillation counting method. The data set is classed as cell membranes, Membrane. (In a radioligand displacement assay an active substance lowers the binding of a labelled ligand.)

Data set [2] concerns the target Delta-type opioid receptor (Rattus norvegicus, UniProt P33533). The data set can be described thus: Displacement of [3H]lleDelt2 from DOR in Wistar rat whole brain membranes after 45 mins by liquid scintillation counting method. Format: cell membranes, Membrane.
Data set [3] is filed under the species Rattus norvegicus. The data set can be described thus: Selectivity ratio of Ki for displacement of [3H]lleDelt2 from DOR in Wistar rat whole brain membranes to displacement of [3H]DAMGO from MOR in Wistar rat whole brain membranes. Format: cell membranes.
Data set [4] in a line: (§1) Agonist activity at heteromeric G-protein in Wistar rat whole brain membranes after 30 mins by [35S]GTPgammaS binding assay. The data set is classed as cell membranes, Membrane.
Data set [5] is filed under the species Rattus norvegicus. The description is as §1. Format: cell membranes. The settings on record: Membrane.
The subject of data set [6] is Mus musculus. As to the kind of experiment: Antinociceptive activity in Harlan CD-1 mouse model of thermal-induced nociception assessed as increase in latency to tail withdrawal at 0.01 nmol, icv measured after 45 to 90 mins by tail flick test. The data set is classed as functional, organism-based. Background: In hot-plate and tail-flick tests a longer latency is read as antinociception.

For data set [7], the species on record is Mus musculus. The data set can be described thus: Antinociceptive activity in Harlan CD-1 mouse model of thermal-induced nociception assessed as increase in latency to tail withdrawal at 0.01 nmol, i.t measured after 45 to 120 mins by tail flick test. The data set is classed as functional, organism-based.
Data set [8] deals with Mus musculus. The data set can be described thus: Analgesic activity in formalin-induced nociception Harlan CD-1 mouse model assessed as reduction in time spent in licking or biting formalin injected hind paw during neurogenic phase at 0.1 nmol, sc pretreated for 15 mins followed by formalin induction measured up to 10 mins. The data set is classed as functional, organism-based.

Data set [9] relates to Mus musculus. The data set can be described thus: Analgesic activity in formalin-induced nociception Harlan CD-1 mouse model assessed as reduction in time spent in licking or biting formalin injected hind paw during inflammatory phase at 0.1 nmol, sc pretreated for 15 mins followed by formalin induction measured after 15 to 40 mins. Format: functional, organism-based.
The nature of data set [10]: Half life in human plasma at 100 ug/ml by HPLC method. Format: ADME, cell-free.
Data set [11] deals with Mus musculus. The data set can be described thus: Antinociceptive activity in Harlan CD-1 mouse model of thermal-induced nociception assessed as increase in latency to tail withdrawal at 0.01 nmol, icv measured after 15 to 120 mins by tail flick test. Format: functional, organism-based.
The species named for data set [12] is Mus musculus. The data set can be described thus: Antinociceptive activity in Harlan CD-1 mouse model of thermal-induced nociception assessed as increase in latency to tail withdrawal at 0.01 nmol, i.t measured after 15 to 120 mins by tail flick test. Format: functional, organism-based.
Data set [13] concerns the target Mu-type opioid receptor (Homo sapiens, UniProt P35372). As to the kind of experiment: Binding affinity to MOR (unknown origin).

Each structure is given as a SMILES string. Calls of active or inactive are those of the source. Starred links: 1 amine or outer side, 2 acyl side, 3 side chain; linkers in the order of their positions; H or OH if unused. Positions of bridges follow the written chain, without caps; N, C: chain ends. Non-standard residues stand in square brackets, D forms with d. Residues, ends and D or L forms follow the SMILES beside them. Chains are numbered I, II in the order given. NHNH = N(N[*:2])[*:1]

A word on the Ki: it is a measure of affinity in units of concentration, obtained from inhibition or displacement. A low value points to a stronger hold on the target. By EC50 is commonly meant the concentration at which the effect is half-maximal. As usually defined, the Emax is the maximal effect, on the per cent scale that the assay sets. One may read the half-life as the time needed for the level to fall by half in the phase considered.

Sequence of Delta-type opioid receptor (P33533 whole entry): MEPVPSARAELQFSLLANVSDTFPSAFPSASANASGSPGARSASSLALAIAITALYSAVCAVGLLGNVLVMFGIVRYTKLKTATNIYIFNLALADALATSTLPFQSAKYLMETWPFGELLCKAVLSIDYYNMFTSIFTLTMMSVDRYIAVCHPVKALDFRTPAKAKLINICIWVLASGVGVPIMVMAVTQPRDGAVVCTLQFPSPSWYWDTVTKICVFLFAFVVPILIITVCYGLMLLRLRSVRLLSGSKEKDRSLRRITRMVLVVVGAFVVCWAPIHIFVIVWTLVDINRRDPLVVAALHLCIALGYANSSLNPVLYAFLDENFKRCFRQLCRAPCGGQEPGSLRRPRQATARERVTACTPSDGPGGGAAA
Sequence of Mu-type opioid receptor (Rattus norvegicus, UniProt P33535) (P33535 whole entry): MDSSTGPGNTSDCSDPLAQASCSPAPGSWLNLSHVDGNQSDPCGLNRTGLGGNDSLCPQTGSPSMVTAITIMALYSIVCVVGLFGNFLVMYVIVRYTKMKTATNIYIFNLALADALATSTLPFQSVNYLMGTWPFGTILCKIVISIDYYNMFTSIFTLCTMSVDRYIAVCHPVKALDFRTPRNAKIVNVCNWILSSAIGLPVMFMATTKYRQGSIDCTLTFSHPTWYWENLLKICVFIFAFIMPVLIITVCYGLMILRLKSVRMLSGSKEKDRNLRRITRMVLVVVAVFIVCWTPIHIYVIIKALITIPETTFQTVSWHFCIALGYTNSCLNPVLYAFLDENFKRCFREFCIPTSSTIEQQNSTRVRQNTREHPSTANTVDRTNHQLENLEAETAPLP
Sequence of Mu-type opioid receptor (Homo sapiens, UniProt P35372) (P35372 whole entry): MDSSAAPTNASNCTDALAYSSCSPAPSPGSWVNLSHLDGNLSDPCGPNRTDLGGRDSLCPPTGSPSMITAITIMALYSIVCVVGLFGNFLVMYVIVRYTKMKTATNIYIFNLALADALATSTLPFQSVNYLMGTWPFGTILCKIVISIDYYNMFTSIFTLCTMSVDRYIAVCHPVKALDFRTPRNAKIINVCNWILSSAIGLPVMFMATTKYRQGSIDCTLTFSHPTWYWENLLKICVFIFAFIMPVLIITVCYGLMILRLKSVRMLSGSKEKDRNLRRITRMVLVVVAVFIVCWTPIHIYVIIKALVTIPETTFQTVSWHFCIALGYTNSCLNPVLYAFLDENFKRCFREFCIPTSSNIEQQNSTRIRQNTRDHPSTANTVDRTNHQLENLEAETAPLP

Regarding `N[C@@H](Cc1ccc(O)cc1)C(=O)N[C@@H]1CSCc2ccccc2CSC[C@@H](NC(=O)[C@@H](N)Cc2ccc(O)cc2)C(=O)NCC(=O)N[C@@H](Cc2ccccc2)C(=O)NNC(=O)[C@H](Cc2ccccc2)NC(=O)CNC1=O.O=C(O)C(F)(F)F.O=C(O)C(F)(F)F`, the inhibition constant (Ki) on Mu-type opioid receptor [1] was 1.33 nM; in [2] it was 2.26 nM. In addition, the Ratio Ki in the data set listed under Rattus norvegicus [3] worked out at 1.8. In data set [4], this compound displayed an EC50 of 247 nM. Besides, the Emax in the data set listed under Rattus norvegicus [5] was 137%. Further, the outcome in the data set on Mus musculus [6], in the data set filed under Mus musculus [7], in the data set with Mus musculus [8] and with Mus musculus [9] was Active. The same compound gave a half-life at 100 ug/ml in data set [10] of 1.45 h.
In the case of `N[C@@H](Cc1ccc(O)cc1)C(=O)N[C@@H]1CSCc2ccc(cc2)CSC[C@@H](NC(=O)[C@@H](N)Cc2ccc(O)cc2)C(=O)NCC(=O)N[C@@H](Cc2ccccc2)C(=O)NNC(=O)[C@H](Cc2ccccc2)NC(=O)CNC1=O`, the values for the Ki (at Mu-type opioid receptor [1]; in data set [2]) were 1.61 nM and 2.52 nM, respectively. Besides, the Ratio Ki in the data set listed under Rattus norvegicus [3] came out at 1.5. Also, the midpoint of the response in data set [4], the EC50, lay at 87.4 nM. The compound further displayed an Emax in the data set filed under Rattus norvegicus [5] of 150%. Also, the result in the data set with Mus musculus [11], in the data set filed under Mus musculus [12], with Mus musculus [8] and in the data set with Mus musculus [9] was Active.
Turning to `C[C@@H](NC(=O)[C@@H](N)Cc1ccc(O)cc1)C(=O)NCC(=O)N[C@@H](Cc1ccccc1)C(=O)NNC(=O)[C@H](Cc1ccccc1)NC(=O)CNC(=O)[C@@H](C)NC(=O)[C@@H](N)Cc1ccc(O)cc1` [BIPHALIN], the Ki is 0.79 nM on Mu-type opioid receptor [1] and 3.5 nM in data set [2]. The EC50 was 75.4 nM in [4] and 1 to 4 nM on Mu-type opioid receptor [13]. The Emax in the data set listed under Rattus norvegicus [5] is 177%. For the same compound, the outcome in the data set with Mus musculus [8] and with Mus musculus [9] was Active. In addition, in [10], the half-life at 100 ug/ml worked out at 0.55 h.
For the compound `N[C@@H](Cc1ccc(O)cc1)C(=O)N[C@@H]1CSSC[C@@H](NC(=O)[C@@H](N)Cc2ccc(O)cc2)C(=O)NCC(=O)N[C@@H](Cc2ccccc2)C(=O)NNC(=O)[C@H](Cc2ccccc2)NC(=O)CNC1=O` (I: H-Y[dC]GF / II: H-Y[dC]GF; disulfide I:2-II:2; linker I:C-II:C via NHNH), the results for the Ki (on Mu-type opioid receptor [1]; in data set [2]) were 6.06 nM and 5.25 nM, respectively. Also, the Ratio Ki in the data set listed under Rattus norvegicus [3] was 0.9. Besides, the EC50 in data set [4] was 508 nM. This compound yielded an Emax in the data set listed under Rattus norvegicus [5] of 146%.
On to `N[C@@H](Cc1ccc(O)cc1)C(=O)N[C@@H]1CSCc2cccc(c2)CSC[C@@H](NC(=O)[C@@H](N)Cc2ccc(O)cc2)C(=O)NCC(=O)N[C@@H](Cc2ccccc2)C(=O)NNC(=O)[C@H](Cc2ccccc2)NC(=O)CNC1=O`, for which the Ki at Mu-type opioid receptor [1] amounted to 1.73 nM; in data set [2], 3.81 nM. The Ratio Ki in the data set filed under Rattus norvegicus [3] was determined as 2.2. Further, the EC50 in data set [4] came out at 213 nM. Moreover, in the data set listed under Rattus norvegicus [5], the Emax came out at 160%. Besides, the outcome in the data set with Mus musculus [11], in the data set filed under Mus musculus [12], in the data set with Mus musculus [8] and with Mus musculus [9] was Active.

The values are drawn from ChEMBL document CHEMBL4190333, “Cyclic Biphalin Analogues Incorporating a Xylene Bridge: Synthesis, Characterization, and Biological Profile” (ACS Med Chem Lett, 2017).
